Patent publication US6051712A, “Piperidine derivatives having renin inhibiting activity” (Hoffmann-La Roche Inc., priority 1995, dated 2000)
Where a name gives a salt, the structure may show the parent alone.

The molecules below were run against T1, human renin (Homo sapiens, UniProt P00797) (assay: In vitro test with pure human renin (angiotensin I production from human tetradecapeptide renin substrate, measured by RIA)). Conditions: not given.
T1 sequence (P00797 67-406): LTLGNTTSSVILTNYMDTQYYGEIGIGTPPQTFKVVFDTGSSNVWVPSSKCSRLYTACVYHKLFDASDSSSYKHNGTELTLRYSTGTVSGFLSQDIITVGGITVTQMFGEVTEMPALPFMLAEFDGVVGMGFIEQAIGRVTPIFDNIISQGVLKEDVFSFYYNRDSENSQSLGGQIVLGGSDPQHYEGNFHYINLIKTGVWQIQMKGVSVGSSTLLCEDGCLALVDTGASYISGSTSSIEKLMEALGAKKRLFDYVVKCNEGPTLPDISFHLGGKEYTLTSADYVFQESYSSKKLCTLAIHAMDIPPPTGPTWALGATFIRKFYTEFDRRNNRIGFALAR
Assay type: biochemical
Description: In vitro test with pure human renin
The test is carried out in Eppendorf test tubes. The incubation mixture consists of (1) 100 μl of human renin in buffer A (0.1M sodium phosphate solution, pH 7.4, containing 0.1% bovine serum albumin, 0.1% sodium azide and 1 mM ethylenediaminetetraacetic acid), sufficient for a renin activity of 2-3 ng of angiotensin l/ml/hr.; (2) 145 μl of buffer A: (3) 30 μl of 10 mM human tetradecapeptide renin substrate (hTD) in 10 mM hydrochloric acid: (4) […] of dimethyl sulphoxide with or without inhibitor and (5) 10 μl of a 0.03 molar solution of hydroxyquinoline sulphate in water.
The samples are incubated for three hours at 37° C. and, respectively, 4° C. in triplicate. 2×100 μl samples per test tube are used in order to measure the production of angiotensin I via RIA (standard radioimmunoassay; clinical assay solid phase kit). […] The production of angiotensin I is determined by the difference between the test at 37° C, and that at 4° C.
The following controls are carried out:
(a) Incubation of hTD samples without renin and without inhibitor at 37° C. and 4° C. The difference between these two values gives the base value of the angiotensin I production.
(b) Incubation of hTD samples with renin, but without inhibitor at 37° C. and 4° C. The difference between these values gives the maximum value of the angiotensin I production.
In each sample the base value of the angiotensin I production is subtracted from the angiotensin I production which is determined. The difference between the maximum value and the base value gives the value of the maximum substrate hydrolysis (=100%) by renin.
The IC50 values are determined from a linear regression curve from a logit-log plot.

**Q.** `Fc1ccc([C@H]2C[C@@H]3CC[C@@H](N3)[C@@H]2OCc2cc(OCc3ccccc3)c3ccccc3c2)cc1` (racemic) [L, (1RS,2RS,3RS,5SR)-2-(4-benzyloxy-naphthalen-2-ylmethoxy)-3-(4-fluoro-phenyl)-8-aza-bicyclo[3.2.1]octane] was tested. Which IC50 did it give?
**A.** Its IC50 is 3080 nM.

**Q.** How did the IC50 turn out when `c1ccc(-c2noc(COc3ccc([C@H]4CCNC[C@@H]4OCc4ccc5ccccc5c4)cc3)n2)cc1` (racemic) [E, (3RS,4RS)-3-(naphthalen-2-ylmethoxy)-4-[4-(3-phenyl-[1,2,4]oxadiazol-5-ylmethoxy)-phenyl]-piperidine trifluoroacetate] was run?
**A.** Its IC50 is 41 nM.

**Q.** How did the IC50 turn out when `COc1ccccc1COCCCOc1ccc([C@H]2CCNC[C@@H]2OCc2cc(OC)c3ccccc3c2OC)cc1` (relative stereo) [UU] was run?
**A.** The IC50 was 0.1 nM.

Same assay, conditions: pure human renin, pH 7.4, three hours at 37° C. (less 4° C.), human tetradecapeptide substrate, angiotensin I by RIA; read-out: IC50 values (concentration of the inhibitor at which the enzymatic activity is inhibited by 50%)

**Q.** Which IC50 does the source give for `COc1ccccc1COCCCOc1ccc([C@H]2CCNC[C@@H]2OCc2ccc3cccnc3c2)cc1` (racemic) [OO, (3RS,4RS)-4-[4-[3-(2-methoxy-benzyloxy)-propoxy]-phenyl]-3-(quinolin-7-ylmethoxy)-piperidine] here?
**A.** The IC50 was 6 nM.

**Q.** For `COc1ccccc1COCCCOc1ccc([C@H]2CCNC[C@@H]2OCc2cc(OC)c3ccccc3c2OC)cn1` (relative stereo) [TT], which IC50 is on record?
**A.** Its IC50 is 0.5 nM.

**Q.** Which IC50 does the source give for `c1ccc(COCCCOc2ccc([C@H]3[C@H](COCCN4CCOCC4)CNC[C@@H]3OCc3ccc4ccccc4c3)cc2)cc1` (relative stereo) [BB] here?
**A.** The IC50 was 3 nM.

**Q.** With `COC[C@@H]1CNC[C@H](OCc2ccc3ccccc3c2)[C@H]1c1ccc(OCCCOCc2ccccc2)cc1` (relative stereo) [CC] as the molecule, how does the IC50 read?
**A.** Its IC50 is 2 nM.

**Q.** How did the IC50 turn out when `COC[C@@H]1CNC[C@H](OCc2ccc3ccccc3c2)[C@H]1c1ccc(COCc2ccccc2)cc1` (racemic) [J, (3SR,4RS,5RS)-4-(4-benzyloxymethyl-phenyl)-3-methoxymethyl-5-(naphthalen-2-ylmethoxy)-piperidine] was run?
**A.** The IC50 was 17 nM.

**Q.** With `COc1cc(CO[C@H]2CNCC[C@@H]2c2cnc(OCCCCC3CCCCC3)nc2)c(OC)c2ccccc12` (relative stereo) [FF] as the molecule, how does the IC50 read?
**A.** Its IC50 is 0.6 nM.

**Q.** How did the IC50 turn out when `COc1ccc(CO[C@H]2CNC[C@@H](OCc3ccc(OC)cc3)[C@@H]2c2ccc(OCCCOCc3ccccc3)cc2)cc1` [AA, (3R,4s,5S)-4-[4-(3-benzyloxy-propoxy)-phenyl]-3,5-bis-(4-methoxy-benzyloxy)-piperidine] was run?
**A.** Its IC50 is 1 nM.

**Q.** Which IC50 does the source give for `COc1cc(CO[C@H]2CNCC[C@@H]2c2ccc(OCCCC3CCCCC3)nc2)c(OC)c2ccccc12` (relative stereo) [GG, (3'RS,4'RS)6-(3-Cyclohexyl-propoxy)-3(1,4-dimethoxy-naphthalen-2-ylmethox)-1',2',3',4',5',6hexahydro-[3,4']bipyridine] here?
**A.** The IC50 was 1 nM.

**Q.** Which IC50 does the source give for `O=C(OCCOc1ccc([C@H]2CCNC[C@@H]2OCc2ccc3ccccc3c2)cc1)c1cccs1` (racemic) [A, (3RS,4RS)-2-[4-(3-naphthalen-2-ylmethoxy-piperidin-4-yl)-phenoxy]-ethylthiophene-2-carboxylate hydrochloride] here?
**A.** Its IC50 is 11 nM.

**Q.** Which IC50 does the source give for `COc1ccccc1OCCCOc1ccc([C@H]2CCNC[C@@H]2OCc2cc(OC)c3ccccc3c2OC)cc1` (relative stereo) [LL] here?
**A.** Its IC50 is 1 nM.

**Q.** Which IC50 does the source give for `c1ccc(COCCCOc2ccc([C@H]3[C@H](CSc4ccncc4)CNC[C@@H]3OCc3ccc4ccccc4c3)cc2)cc1` (relative stereo) [EE] here?
**A.** The IC50 was 0.4 nM.

**Q.** Which IC50 does the source give for `OCC(O)COc1ccc2ccc(CO[C@H]3CNCC[C@@H]3c3ccc(OCCCOCc4ccccc4)cc3)cc2c1` (mixture of isomers) [O, a mixture of (RS)- and (SR)-3-[7-[(3RS,4RS)-4-[4-(3-benzyloxy-propoxy)-phenyl]-piperidin-3-yloxymethyl]-naphthalen-2-yloxy]-propane-1,2-diol] here?
**A.** Its IC50 is 17 nM.

**Q.** Which IC50 does the source give for `O=C(OC(Cc1ccc2ccccc2c1)[C@H]1CNCC[C@@H]1c1ccc(F)cc1)c1ccccc1` (stereo partly drawn) [K, (SR)- or (RS)-1-[(3RS,4SR)-4-(4-fluoro-phenyl)-piperidin-3-yl]-2-naphthalen-2-yl-ethyl benzoate hydrochloride (1:1)] here?
**A.** Its IC50 is 2600 nM.

**Q.** `Oc1cc(CO[C@H]2CNCC[C@@H]2c2ccc(CCSc3nc4ccccc4s3)cc2)cc2ccccc12` (racemic) [H, (3RS,4RS)-3-[4-[4-[2-(benzothiazol-2-ylsulphanyl)-ethyl]-phenyl]-piperidin-3-yloxymethyl]-naphthalen-1-ol] was tested. Which IC50 did it give?
**A.** Its IC50 is 73 nM.

**Q.** How did the IC50 turn out when `c1ccc(COCCCOc2ccc([C@H]3CCNC[C@@H]3OCc3ccc4c(c3)OCCO4)cc2)cc1` (racemic) [D, (3RS,4RS)-4-[4-(3-benzyloxy-propoxy)-phenyl]-3-(2,3-dihydro-benzo[1,4]dioxin-6-ylmethoxy)-piperidine] was run?
**A.** Its IC50 is 40 nM.

**Q.** With `COc1ccc(CO[C@H]2CNC[C@@H](O)[C@@H]2c2ccc(OCCCOCc3ccccc3)cc2)cc1` (racemic) [Z, (3RS,4SR,5SR)-4-[4-(3-benzyloxy-propoxy)-phenyl]-3-(4-methoxy-benzyloxy)-piperidin-5-ol] as the molecule, how does the IC50 read?
**A.** Its IC50 is 1 nM.

**Q.** For `COc1ccccc1COCCCOc1ccc([C@H]2CCNC[C@@H]2OCc2ccc3c(c2)NCCC3)cc1` (racemic) [YY, (3RS,4RS)-4-[4-[3-(2-methoxy-benzyloxy)-propoxy]-phenyl]-3-(1,2,3,4-tetrahydro-quinolin-7-ylmethoxy)-piperidine], which IC50 is on record?
**A.** The IC50 was 0.5 nM.

**Q.** How did the IC50 turn out when `CN1CCN(CCO[C@@H]2CNC[C@H](OCc3ccc4ccccc4c3)[C@H]2c2ccc(OCCCOCc3ccccc3)cc2)CC1` (racemic) [X, 1-{2-[(3RS,4RS,5SR)-4-[4-(3-benzyloxy-propoxy)-phenyl]-3-(naphthalen-2-ylmethoxy)-piperidin-5-yloxy]-ethyl}-4-methyl-piperazine] was run?
**A.** The IC50 was 3 nM.

**Q.** With `OCCOCc1ccc2ccc(CO[C@H]3CNCC[C@@H]3c3ccc(OCCCOCc4ccccc4)cc3)cc2c1` (racemic) [PP, 2-(7-{(3RS,4RS)-4-[4-(3-benzyloxy-propoxy)-phenyl]-piperidin-3-yloxymethyl}-naphthalen-2-ylmethoxy)-ethanol] as the molecule, how does the IC50 read?
**A.** Its IC50 is 2 nM.

**Q.** Which IC50 does the source give for `CN1CCN(CCCNC(=O)OC[C@@H]2CNC[C@H](OCc3ccc4ccccc4c3)[C@H]2c2ccc(OCCCOCc3ccccc3)cc2)CC1` (relative stereo) [DD] here?
**A.** Its IC50 is 1 nM.

**Q.** How did the IC50 turn out when `c1ccc(COCCCOc2ccc([C@H]3CCNC[C@@H]3OCc3ccc4ccc(OCCN5CCOCC5)cc4c3)cc2)cc1` (racemic) [N, 4-[2-[7-[(3RS,4RS)-4-[4-(3-benzyloxy-propoxy)-phenyl]-piperidin-3-yloxymethyl]-naphthalen-2-yloxy]-ethyl]-morpholine hydrochloride (1:2)] was run?
**A.** Its IC50 is 12 nM.

**Q.** With `O=C(Cc1ccc2ccccc2c1)[C@H]1CNCC[C@@H]1c1ccc(OCCCOCc2ccccc2)cc1` (relative stereo) [R, [(3RS,4SR)-4-[4-(3-benzyloxy-propoxy)-phenyl]-piperidin-3-yl]-2-naphthalen-2-yl-ethanone hydrochloride (1:1)] as the molecule, how does the IC50 read?
**A.** Its IC50 is 3 nM.

**Q.** Which IC50 does the source give for `CN(C)CCN(C)C[C@@H]1CNC[C@H](OCc2ccc3ccccc3c2)[C@H]1c1ccc(OCCCOCc2ccccc2)cc1` (relative stereo) [II] here?
**A.** The IC50 was 2 nM.

**Q.** With `O=C(OCCOc1ccc([C@H]2CCNC[C@@H]2OCc2ccc3ccccc3c2)cc1)c1ccccc1Cl` (relative stereo) [B, (3RS,4RS)-2-[4-(3-napthalen-2-ylmethoxy-piperidin-4-yl)-phenoxy]-ethyl 2-chloro-benzoate hydrochloride] as the molecule, how does the IC50 read?
**A.** Its IC50 is 26 nM.

**Q.** `OCC(O)COCc1ccc2cc(CO[C@H]3CNCC[C@@H]3c3ccc(OCCCOCc4ccccc4)cc3)ccc2c1` (mixture of isomers) [U, a mixture of (3RS,4RS)- and (3SR,4SR)-4-[4-(3-benzyloxy-propoxy)-phenyl]-3-[6-[(RS)-2,3-dihydroxy-propoxymethyl]-naphthalen-2-ylmethoxy]-piperidine] was tested. Which IC50 did it give?
**A.** Its IC50 is 24 nM.

**Q.** How did the IC50 turn out when `OCC(O)COCCOc1ccc2ccc(CO[C@H]3CNCC[C@@H]3c3ccc(OCCCOCc4ccccc4)cc3)cc2c1` (mixture of isomers) [P, a mixture of (RS)- and (SR)-3-[2-[7-[(3RS,4RS)-4-[4-(3-benzyloxy-propoxy)-phenyl]-piperidin-3-yloxymethyl]-naphthalen-2-yloxy]-ethoxy]-propane-1,2-diol hydrochloride (1:1)] was run?
**A.** Its IC50 is 6 nM.

**Q.** Which IC50 does the source give for `Fc1ccc([C@@H]2CCNC[C@H]2OCc2cc(OCc3ccccc3)c3ccccc3c2)cc1` [SS, (3S,4S)3-(4-Benzyloxy-naphthalen-2-ylmethoxy)-4-(4-fluoro-phenyl)-piperidne] here?
**A.** Its IC50 is 132000 nM.

**Q.** With `c1ccc(COCCCOc2ccc([C@@H]3[C@@H](OCc4ccc5ccccc5c4)CNC[C@H]3OCCN3CCOCC3)cc2)cc1` (racemic) [Y, 4-{2-[(3RS,4RS,5SR)-4-[4-(3-benzyloxy-propoxy)-phenyl]-3-(naphthalen-2-ylmethoxy)-piperidin-5-yloxy]-ethyl}-morpholine] as the molecule, how does the IC50 read?
**A.** The IC50 was 3 nM.
